The target of test [1] is 5-hydroxytryptamine receptor 4 (Cavia porcellus, UniProt O70528). The class given is cell membranes, Dunkin-Hartley, Striatum, Membrane. Note: in other assays of this panel Not Active means under 50% inhibition at 10 µM.
Test [2] in a line: DRUGMATRIX: GABAA, Chloride Channel, TBOB radioligand binding (ligand: [3H] TBOB). As to conditions: Not Active = under 50% inhibition at 10 µM. It counts as cell membranes, Rattus norvegicus, Wistar, Cerebral cortex, Membrane.
Test [3] deals with Prostaglandin G/H synthase 1 (Homo sapiens, UniProt P23219). Put plainly: biochemical. The class given is tissue-based, Platelet.
Chain of Prostaglandin G/H synthase 1 (P23219 whole entry): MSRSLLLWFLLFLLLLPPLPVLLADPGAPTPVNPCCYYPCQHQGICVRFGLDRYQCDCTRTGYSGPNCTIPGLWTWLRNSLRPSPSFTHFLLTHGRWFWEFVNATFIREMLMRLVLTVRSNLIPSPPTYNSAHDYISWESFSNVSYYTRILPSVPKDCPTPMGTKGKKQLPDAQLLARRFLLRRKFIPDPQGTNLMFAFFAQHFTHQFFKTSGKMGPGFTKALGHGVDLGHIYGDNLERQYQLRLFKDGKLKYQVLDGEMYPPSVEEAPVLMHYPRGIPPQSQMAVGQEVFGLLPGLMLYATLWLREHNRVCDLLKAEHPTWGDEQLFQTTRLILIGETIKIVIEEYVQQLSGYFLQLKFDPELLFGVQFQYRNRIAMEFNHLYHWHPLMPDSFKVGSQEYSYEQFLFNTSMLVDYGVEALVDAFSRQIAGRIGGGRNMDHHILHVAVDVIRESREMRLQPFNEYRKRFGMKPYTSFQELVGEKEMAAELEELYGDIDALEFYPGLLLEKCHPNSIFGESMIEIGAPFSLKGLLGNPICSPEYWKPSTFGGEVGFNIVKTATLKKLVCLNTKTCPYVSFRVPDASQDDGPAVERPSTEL
For a further test, the target named is Adenosine receptor A2a (Homo sapiens, UniProt P29274). Put plainly: DRUGMATRIX: Adenosine A2A radioligand binding (ligand: […]). Particulars: Not Active = under 50% inhibition at 10 µM; for Ki: read-out: Ki. The class given is cell membranes, HEK293, Membrane.
Chain of Adenosine receptor A2a (P29274 whole entry): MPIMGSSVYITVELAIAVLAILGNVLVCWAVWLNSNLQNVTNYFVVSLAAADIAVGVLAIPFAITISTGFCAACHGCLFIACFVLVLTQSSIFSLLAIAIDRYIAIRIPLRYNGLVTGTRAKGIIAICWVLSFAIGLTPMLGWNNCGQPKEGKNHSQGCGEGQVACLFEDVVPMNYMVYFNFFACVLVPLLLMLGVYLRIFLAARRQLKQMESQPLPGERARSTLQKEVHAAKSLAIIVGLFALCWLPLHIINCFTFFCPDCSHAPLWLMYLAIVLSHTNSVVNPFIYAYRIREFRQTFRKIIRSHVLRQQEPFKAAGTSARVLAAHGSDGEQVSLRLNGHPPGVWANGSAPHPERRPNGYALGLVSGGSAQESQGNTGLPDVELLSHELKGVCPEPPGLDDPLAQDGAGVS
Test [4] in a line: DRUGMATRIX: Calcium Channel Type L, Benzothiazepine radioligand binding (ligand: [3H] Diltiazem). It counts as cell membranes, Rattus norvegicus, Wistar, Brain, Membrane. Particulars: Not Active = under 50% inhibition at 10 µM.

Chain of 5-hydroxytryptamine receptor 4 (O70528 whole entry): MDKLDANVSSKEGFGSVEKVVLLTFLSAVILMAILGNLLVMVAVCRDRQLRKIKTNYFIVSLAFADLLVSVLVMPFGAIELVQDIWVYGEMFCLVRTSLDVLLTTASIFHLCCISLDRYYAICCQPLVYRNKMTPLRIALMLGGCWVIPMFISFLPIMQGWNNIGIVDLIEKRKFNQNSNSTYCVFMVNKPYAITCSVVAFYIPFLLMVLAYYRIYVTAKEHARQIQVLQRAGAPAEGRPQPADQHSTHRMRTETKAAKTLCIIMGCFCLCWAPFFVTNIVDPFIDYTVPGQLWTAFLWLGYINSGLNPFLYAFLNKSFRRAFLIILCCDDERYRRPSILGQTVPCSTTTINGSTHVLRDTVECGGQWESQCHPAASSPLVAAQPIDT

Regarding `CCCCCCNC(=O)n1cc(F)c(=O)[nH]c1=O` [CARMOFUR], the 50% inhibitory concentration (IC50) entry (in test [1]; in test [2]; in test [3] (platelet); on Adenosine receptor A2a (hek293); in test [4]) was “Not Active” in each case. For the same molecule, the Ki entry in test [2] and in test [4] was “Not Active” each time.
Consider `C#C[C@]1(O)CC[C@H]2[C@@H]3CCC4=CC(=O)CC[C@@H]4[C@H]3CC[C@@]21C` [NORETHINDRONE], for which the IC50 entry (in test [1]; in test [2]; in test [3] (platelet); on Adenosine receptor A2a (hek293); in test [4]) was “Not Active” in each case. In addition, the Ki result in test [2] and in test [4] was “Not Active” throughout.
On to `Cl.NC[C@H]1CC[C@H](C(=O)Oc2ccc(CCC(=O)O)cc2)CC1` [CETRAXATE HYDROCHLORIDE], for which the half-maximal inhibitory concentration (IC50) result (in test [1]; in test [2]; in test [3] (platelet); at Adenosine receptor A2a (hek293); in test [4]) was “Not Active” each time. For the same molecule, the inhibition constant (Ki) entry in test [2] and in test [4] was “Not Active” in each case.
In the case of `CC(C)Cn1cnc2c(N)nc3ccccc3c21` [IMIQUIMOD], the concentration for half-maximal inhibition (IC50) result in test [1] is “Not Active”; in test [2], “Not Active”; in test [3] (platelet) it was “Not Active”; at Adenosine receptor A2a (read-out: IC50), 5.32 µM; in test [4], “Not Active”. Also, the inhibition constant Ki result in test [2] was “Not Active”; on Adenosine receptor A2a, 2.99 µM; in test [4], “Not Active”.
Consider `O=C1CN(/N=C/c2ccc([N+](=O)[O-])o2)C(=O)N1` [NITROFURANTOIN], for which the IC50 result (in test [1]; in test [2]; in test [3] (platelet); at Adenosine receptor A2a (hek293); in test [4]) was “Not Active” in each case. Besides, the inhibition constant (Ki) result in test [2] and in test [4] was “Not Active” in each case.
Take `Cc1c(N)nc([C@H](CC(N)=O)NC[C@H](N)C(N)=O)nc1C(=O)N[C@H](C(=O)N[C@H](C)[C@@H](O)[C@H](C)C(=O)N[C@H](C(=O)NCCc1nc(-c2nc(C(=O)NCCC[S+](C)C)cs2)cs1)[C@@H](C)O)[C@@H](O[C@@H]1O[C@@H](CO)[C@@H](O)[C@H](O)[C@@H]1O[C@H]1O[C@H](CO)[C@@H](O)[C@H](OC(N)=O)[C@@H]1O)c1c[nH]cn1.[Br-]` [BLEOMYCIN A2]: the IC50 result (in test [1]; in test [2]; in test [3] (platelet); on Adenosine receptor A2a (hek293); in test [4]) was “Not Active” each time. For the same molecule, the inhibition constant (Ki) entry in test [2] and in test [4] was “Not Active” each time.
With `NS(=O)(=O)c1cc(C(=O)O)c(NCc2ccco2)cc1Cl` [FUROSEMIDE], the half-maximal inhibitory concentration (IC50) result (in test [1]; in test [2]; in test [3] (platelet); on Adenosine receptor A2a (hek293); in test [4]) was “Not Active” each time. In addition, the inhibitory constant (Ki) result in test [2] and in test [4] was “Not Active” each time.
In the case of `C[C@H]1C[C@H]2[C@@H]3CCC4=CC(=O)C=C[C@]4(C)[C@@]3(F)[C@@H](O)C[C@]2(C)[C@@]1(O)C(=O)CO` [BETAMETHASONE], the half-inhibitory concentration (IC50) entry (in test [1]; in test [2]; in test [3] (platelet); on Adenosine receptor A2a (hek293); in test [4]) was “Not Active” throughout. Also, the inhibition constant (Ki) result in test [2] and in test [4] was “Not Active” each time.
As for `COC(=O)C[C@](O)(CCC(C)(C)O)C(=O)O[C@@H]1C(OC)=C[C@]23CCCN2CCc2cc4c(cc2[C@H]13)OCO4` [HARRINGTONINE], the IC50 result (in test [1]; in test [2]; in test [3] (platelet); on Adenosine receptor A2a (hek293); in test [4]) was “Not Active” each time. Further, the Ki result in test [2] and in test [4] was “Not Active” throughout.
With `CC(C)(c1ccc(O)cc1)c1ccc(O)cc1` [BISPHENOL A], the IC50 result (in test [1]; in test [2]; in test [3] (platelet); at Adenosine receptor A2a (hek293); in test [4]) was “Not Active” each time. Further, the inhibition constant Ki result in test [2] and in test [4] was “Not Active” each time.
For `CCN1CCN(C(=O)N[C@@H](C(=O)N[C@@H]2C(=O)N3[C@@H]2SC(C)(C)[C@@H]3C(=O)O)c2ccccc2)C(=O)C1=O` [PIPERACILLIN], the half-maximal inhibitory concentration (IC50) result (in test [1]; in test [2]; in test [3] (platelet); at Adenosine receptor A2a (hek293); in test [4]) was “Not Active” each time. For the same molecule, the Ki result in test [2] and in test [4] was “Not Active” in each case.
Regarding `CC[C@H]1OC(=O)[C@H](C)[C@@H](O[C@H]2C[C@@](C)(OC)[C@@H](O)[C@H](C)O2)[C@H](C)[C@@H](O[C@@H]2O[C@H](C)C[C@H](N(C)C)[C@H]2O)[C@](C)(O)C[C@@H](C)C(=O)[C@H](C)[C@@H](O)[C@]1(C)O` [ERYTHROMYCIN], the half-maximal inhibitory concentration (IC50) entry (in test [1]; in test [2]; in test [3] (platelet); at Adenosine receptor A2a (hek293); in test [4]) was “Not Active” throughout. For the same molecule, the inhibition constant (Ki) result in test [2] and in test [4] was “Not Active” each time.
In the case of `NC(N)=Nc1nc(CSCCC(N)=NS(N)(=O)=O)cs1` [FAMOTIDINE], the IC50 entry (in test [1]; in test [2]; in test [3] (platelet); on Adenosine receptor A2a (hek293); in test [4]) was “Not Active” throughout. Further, the inhibition constant Ki entry in test [2] and in test [4] was “Not Active” throughout.
For the molecule `CN(CCOc1ccc(C[C@H](Nc2ccccc2C(=O)c2ccccc2)C(=O)O)cc1)c1ccccn1`, the IC50 result in test [1] was “Not Active”; in test [2], “Not Active”; in test [3] (platelet), “Not Active”; at Adenosine receptor A2a (read-out: IC50), 37.3 µM; in test [4], “Not Active”. Further, the Ki result was “Not Active” in test [2], 20.9 µM on Adenosine receptor A2a and “Not Active” in test [4].
Consider `COc1cc(NC(C)CCCN)c2ncccc2c1` (stereo not given) [PRIMAQUINE], for which the IC50 entry (in test [1]; in test [2]; in test [3] (platelet); at Adenosine receptor A2a (hek293); in test [4]) was “Not Active” throughout. Also, the Ki result in test [2] and in test [4] was “Not Active” throughout.
For `c1ccc2sc(SSc3nc4ccccc4s3)nc2c1` [BENZOTHIAZYL DISULFIDE], the half-inhibitory concentration (IC50) entry (in test [1]; in test [2]; in test [3] (platelet); on Adenosine receptor A2a (hek293); in test [4]) was “Not Active” throughout. Also, the inhibition constant Ki entry in test [2] and in test [4] was “Not Active” in each case.
`CC(C)(C#N)c1cc(Cn2cncn2)cc(C(C)(C)C#N)c1` [ANASTROZOLE]: the IC50 result (in test [1]; in test [2]; in test [3] (platelet); on Adenosine receptor A2a (hek293); in test [4]) was “Not Active” each time. In addition, the Ki result in test [2] and in test [4] was “Not Active” in each case.
`CC(=O)[C@]1(O)Cc2c(O)c3c(c(O)c2[C@@H](O[C@H]2C[C@H](N)[C@H](O)[C@H](C)O2)C1)C(=O)c1ccccc1C3=O` [IDARUBICIN]: the IC50 result (in test [1]; in test [2]; in test [3] (platelet); at Adenosine receptor A2a (hek293); in test [4]) was “Not Active” each time. Besides, the Ki result in test [2] and in test [4] was “Not Active” each time.
With `O=C(O)c1ccccc1` [BENZOIC ACID], the concentration for half-maximal inhibition (IC50) entry (in test [1]; in test [2]; in test [3] (platelet); on Adenosine receptor A2a (hek293); in test [4]) was “Not Active” each time. Further, the inhibition constant Ki entry in test [2] and in test [4] was “Not Active” each time.
For `O=C(Nc1ccc(Cl)c(Cl)c1)c1cc(Cl)cc(Cl)c1O` [3,3',4',5-TETRACHLOROSALICYLANILIDE], the half-maximal inhibitory concentration (IC50) result in test [1] was “Not Active”; in test [2], “Not Active”; in test [3] (read-out: IC50) it was 0.666 µM; at Adenosine receptor A2a (hek293), “Not Active”; in test [4], “Not Active”. In addition, the Ki entry in test [2] and in test [4] was “Not Active” each time.
As to `CC(C)NCC(O)COc1ccc(CC(N)=O)cc1` (stereo not given) [ATENOLOL], the IC50 result (in test [1]; in test [2]; in test [3] (platelet); at Adenosine receptor A2a (hek293); in test [4]) was “Not Active” each time. Also, the inhibitory constant (Ki) entry in test [2] and in test [4] was “Not Active” throughout.
Take `OC[C@H]1O[C@@H]2O[C@H]3[C@H](O)[C@@H](O)[C@@H](O[C@H]4[C@H](O)[C@@H](O)[C@@H](O[C@H]5[C@H](O)[C@@H](O)[C@@H](O[C@H]6[C@H](O)[C@@H](O)[C@@H](O[C@H]7[C@H](O)[C@@H](O)[C@@H](O[C@H]1[C@H](O)[C@H]2O)O[C@@H]7CO)O[C@@H]6CO)O[C@@H]5CO)O[C@@H]4CO)O[C@@H]3CO` [ALFADEX]: the 50% inhibitory concentration (IC50) entry (in test [1]; in test [2]; in test [3] (platelet); on Adenosine receptor A2a (hek293); in test [4]) was “Not Active” in each case. Moreover, the Ki entry in test [2] and in test [4] was “Not Active” throughout.
With `CC(=O)Nc1ccc2c(c1)Cc1ccccc1-2` [2-ACETYLAMINOFLUORENE], the half-inhibitory concentration (IC50) result (in test [1]; in test [2]; in test [3] (platelet); on Adenosine receptor A2a (hek293); in test [4]) was “Not Active” throughout. In addition, the inhibition constant (Ki) result in test [2] and in test [4] was “Not Active” throughout.
As to `CCN1CCN(c2cc3c(cc2F)c(=O)c(C(=O)O)cn3C2CC2)CC1` [ENROFLOXACIN], the IC50 entry (in test [1]; in test [2]; in test [3] (platelet); at Adenosine receptor A2a (hek293); in test [4]) was “Not Active” throughout. For the same molecule, the Ki result in test [2] and in test [4] was “Not Active” in each case.

For the origin of these results see ChEMBL document CHEMBL1909046, “DrugMatrix in vitro pharmacology data”.
